Measurements from patent publication US10696686B2, “Herbicidally active (alkynyl-phenyl)-substituted cyclic dione compounds and derivatives thereof” (Syngenta Limited, priority 2013, dated 2020).

Tests used:
Assay type in all cases: in vivo
[1] = system: Alopecurus myosuroides (ALOMY); assay: Biological Example 1A glasshouse assay, post-emergence application; details: 13 days after application
Experimental: Seeds of a variety of test plant species were sown in standard soil ** in pots. After cultivation for one day (pre-emergence) or after 8 days cultivation (post-emergence) under controlled conditions in a glasshouse (at 24/16° C., day/night; 14 hours light; 65% humidity), the plants were sprayed with an aqueous spray solution derived from the formulation of the technical active ingredient (the test herbicide) in acetone/water (50:50) solution containing 0.5% Tween 20 (polyoxyethylene sorbitan monolaurate, CAS Reg. No. 9005-64-5). The test plants were then grown on under controlled conditions in a glasshouse (at 24/16° C., day/night; 14 hours light; 65% humidity) and watered twice daily. 13 Days after application of the test herbicide, for pre- and post-emergence, the test was evaluated visually for percentage phytotoxicity to each plant (where 100%=total damage to plant; 0%=no damage to plant). Generally, each test herbicide is only tested on 1 plant per plant species for each application rate tested and for each application timing. ** The “standard soil” in Biological Example 1 is usually a “sand” or “sandy loam” type of soil.
Dicotyledonous weeds: ABUTH=Abutilon theophrasti; AMARE=Amaranthus retroflexus. Grassy monocotyledonous weeds: SETFA=Setaria faberi; ALOMY=Alopecurus myosuroides; ECHCG=Echinochloa crus-galli; ZEAMX=Zea mays (corn, maize, e.g. volunteer corn). For Compound A16, the grassy monocotyledonous weed LOLPE (Lolium perenne) was used in the test insterad of ALOMY.

[2] = system: Brachiaria decumbens (BRADC); assay: Biological Example 3 glasshouse assay using various adjuvant systems, post-emergence foliar spray; details: 8 g/ha
Experimental: (§1) Post-emergence foliar spray application, 200 L/ha, usually one or two replicates for the weeds (depending on application rate), and two replicates for soybean.
(§2) Standard warm conditions (tropical), in glasshouse. Specifically, the glasshouse bay conditions are 24° C./18° C. day/night; 16/8 hours light/dark; 65% humidity.
(§3) The herbicidal application takes place at the following growth stages for plants which include inter alia one or more of the following plants (usually the herbicidal application takes place on at least the following plants: DIGSA, ELEIN, SETFA, ZEAMX, GLXMA Nikko, and GLXMA TMG133, and often also either BRADC or BRAPP):
Brachiaria decumbens (BRADC)—growth stage (GS) 12 or 13 (or GS 12)—or, if BRADC is not used, then usually Brachiaria platyphylla (BRAPP)—growth stage 12 or 13
(§4) Each test compound is applied with one of the following adjuvant systems (all percentages are final concentrations in the aqueous spray mixture):
(§5) Adjuvant system 1: 0.5% v/v Adigor™ *, 1.0% v/v AMS (ammonium sulphate) and 12.5% v/v IPA (isopropyl alcohol).
(§6) Adjuvant system 1A: 0.5% v/v Adigor™ * and 12.5% v/v IPA (isopropyl alcohol).
CAS Registry no. 166412-78-8), and is usually available from BASF. “Isononyl” in this context is thought to mean a mixture of two or more branched isomers of C9H19. […] A visual assessment of the % herbicidal damage is made 7 and 14 Days After herbicide Application (DAA) (or, in a minority of cases, 7 and 15 DAA), and the results are recorded as % visual herbicidal damage where 0%=no damage to plants and 100%=plant totally killed. *** Adjuvant system=either Adigor™ or Hexamoll DINCH™ or tris-(2-ethylhexyl) phosphate each at 0.5% v/v, and 12.5% v/v IPA (isopropyl alcohol), and 1.0% v/v AMS (ammonium sulphate); or 0.5% v/v Adigor™ and 12.5% v/v IPA (isopropyl alcohol); all percentages are final concentrations in the aqueous spray mixture. […]

[3] = system: Setaria faberi (SETFA); assay: as above; details: 8 g/ha
Experimental: as §1, §2, §3
Setaria faberi (SETFA)—growth stage 12 or 13
as §4, §5, §6
CAS Registry no. […] A visual assessment of the % herbicidal damage is made 7 and 14 Days After herbicide Application (DAA) (or, in a minority of cases, 7 and 15 DAA), and the results are recorded as % visual herbicidal damage where 0%=no damage to plants and 100%=plant totally killed. *** Adjuvant system=either Adigor™ or Hexamoll DINCH™ or tris-(2-ethylhexyl) phosphate each at 0.5% v/v, and 12.5% v/v IPA (isopropyl alcohol), and 1.0% v/v AMS (ammonium sulphate); or 0.5% v/v Adigor™ and 12.5% v/v IPA (isopropyl alcohol); all percentages are final concentrations in the aqueous spray mixture. […]
The percentages of herbicidal damage/plant control, at 14 Days After herbicide Application (DAA) (or, in a minority of cases, at 15 DAA), for the Compounds tested and for some of the plants tested, were in the following percentage ranges. […] Phytotoxicity on Glycine max (GLXMA, Soybean) Cultivar “TMG133” Glycine max (GLXMA, soybean) cultivar “TMG133” is Roundup Ready™ glyphosate-tolerant soybean cultivar TMG133, and is typically available from Monsanto in Brazil.

[4] = system: Glycine max (GLXMA, soybean) cultivar TMG133; assay: as above
Experimental: as §1, §2, §3
Glycine max (GLXMA, soybean) cultivar “TMG133”—which is Roundup Ready™ glyphosate-tolerant soybean cultivar TMG133 (typically available from Monsanto in Brazil)—growth stage: 1st trifoliate.
as §4, §5, §6
CAS Registry no. 166412-78-8), and is usually available from BASF. “Isononyl” in this context is thought to mean a mixture of two or more branched isomers of C9H19. Method: Seeds of the weed (including volunteer) plants, typically including inter alia Digitaria sanguinalis (DIGSA), Eleusine indica (ELEIN), Setaria faberi (SETFA), Zea mays (ZEAMX, corn), and sometimes also [either Brachiaria decumbens (BRADC) or Brachiaria platyphylla (BRAPP)], are sown in seed trays (troughs) containing clay loam soil (pH 7.0, 2.2% organic matter, “Trough Mix A”); and soybean seed is sown in pots containing the same soil with 3 soybean seedlings per pot. The plants are sprayed with the test herbicide when they reach the growth stages mentioned above. The test herbicidal solutions are prepared by mixing the appropriate aliquots of the test substance(s) and one of the adjuvant systems indicated above *** in deionised water to give the desired treatment concentration. The herbicidal application is made as a foliar spray, using a tracksprayer. Following the herbicidal application, the plants are watered twice per day for the duration of the test. A visual assessment of the % herbicidal damage is made 7 and 14 Days After herbicide Application (DAA) (or, in a minority of cases, 7 and 15 DAA), and the results are recorded as % visual herbicidal damage where 0%=no damage to plants and 100%=plant totally killed. *** Adjuvant system=either Adigor™ or Hexamoll DINCH™ or tris-(2-ethylhexyl) phosphate each at 0.5% v/v, and 12.5% v/v IPA (isopropyl alcohol), and 1.0% v/v AMS (ammonium sulphate); or 0.5% v/v Adigor™ and 12.5% v/v IPA (isopropyl alcohol); all percentages are final concentrations in the aqueous spray mixture.
Compounds A8, A11 and A17, which are compounds of formula (I) according to the present invention, were tested in a test method substantially as described above.
Compound A8 was tested using the 0.5% v/v Adigor™+12.5% v/v IPA adjuvant system. Compounds A11 and A17 were tested using the 0.5% v/v Adigor™+1.0% v/v AMS+12.5% v/v IPA adjuvant system.
The percentages of herbicidal damage/plant control, at 14 Days After herbicide Application (DAA) (or, in a minority of cases, at 15 DAA), for the Compounds tested and for some of the plants tested, were in the following percentage ranges. […]

[5] = 14 DAA (A11: 14 or 15 DAA), adjuvant 0.5% v/v Adigor + 1.0% v/v AMS + 12.5% v/v IPA
[6] = 14 DAA, adjuvant 0.5% v/v Adigor + 12.5% v/v IPA

SMILES	Percentage phytotoxicity ALOMY ([1]; 30 g/ha) [%]	Percentage phytotoxicity ALOMY ([1]; 250 g/ha) [%]	percentage control of (phytotoxicity on) Brachiaria decumbens (BRADC) [2, 5] [%]	percentage control of Setaria faberi (SETFA) [3, 5] [%]	percentage phytotoxicity on Glycine max (GLXMA, soybean) cultivar TMG133 ([4]; 120 g/ha, 14 DAA (A11: 14 or 15 DAA), adjuvant 0.5% v/v Adigor + 1.0% v/v AMS + 12.5% v/v IPA) [%]	percentage phytotoxicity on Glycine max (GLXMA, soybean) cultivar TMG133 ([4]; 240 g/ha, 14 DAA (A11: 14 or 15 DAA), adjuvant 0.5% v/v Adigor + 1.0% v/v AMS + 12.5% v/v IPA) [%]	percentage control of (phytotoxicity on) Brachiaria decumbens (BRADC) [2, 6] [%]	percentage control of (phytotoxicity on) Setaria faberi (SETFA) [3, 6] [%]	percentage phytotoxicity on Glycine max (GLXMA, soybean) cultivar TMG133 ([4]; 120 g/ha, 14 DAA, adjuvant 0.5% v/v Adigor + 12.5% v/v IPA) [%]
CC#Cc1cc(F)c(C2C(=O)CC(CCSC)CC2=O)c(OC)c1 (centres unmarked) [Compound A11]	0	10	0	0	5	5			
C#CCC1CC(=O)C(c2c(F)cc(C#CC)cc2OC)C1=O (centres unmarked) [Compound A8, 2-(2-fluoro-6-methoxy-4-prop-1-ynyl-phenyl)-4-prop-2-ynyl-cyclopentane-1,3-dione]	70	90					0	75	17.5
